Laboratory results: ChEMBL document CHEMBL1909046, “DrugMatrix in vitro pharmacology data”

Tests used:
Acetylcholinesterase = Acetylcholinesterase (Homo sapiens, UniProt P22303); test: DRUGMATRIX: Acetylcholinesterase enzyme inhibition (substrate: acetylthiocholine); assay type: cell-based, HEK293; details: Not Active = under 50% inhibition at 10 µM
[1] = DRUGMATRIX: Glutamate, NMDA, Phencyclidine radioligand binding (ligand: [3H] TCP); assay type: cell membranes, Rattus norvegicus, Wistar, Cerebral cortex, Membrane; details: Not Active = under 50% inhibition at 10 µM
Substance-K receptor = target: T1, Substance-K receptor (Homo sapiens, UniProt P21452); assay type: cell membranes, CHO, Membrane; details: for Ki: read-out: Ki; on all read-outs here: in other assays of this panel Not Active means under 50% inhibition at 10 µM
T1 sequence (P21452 whole entry): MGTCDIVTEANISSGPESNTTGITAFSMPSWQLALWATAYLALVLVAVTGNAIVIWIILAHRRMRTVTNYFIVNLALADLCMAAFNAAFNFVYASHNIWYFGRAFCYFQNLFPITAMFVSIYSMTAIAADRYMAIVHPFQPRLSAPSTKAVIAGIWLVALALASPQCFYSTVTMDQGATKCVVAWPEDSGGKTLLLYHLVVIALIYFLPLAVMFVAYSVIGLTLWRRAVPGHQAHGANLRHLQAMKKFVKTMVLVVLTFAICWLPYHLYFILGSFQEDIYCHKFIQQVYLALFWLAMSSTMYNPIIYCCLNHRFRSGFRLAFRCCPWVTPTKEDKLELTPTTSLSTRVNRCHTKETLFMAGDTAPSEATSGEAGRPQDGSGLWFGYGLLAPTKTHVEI

[2] = target: T2, Amine oxidase [flavin-containing] A (Homo sapiens, UniProt P21397); test: DRUGMATRIX: Monoamine Oxidase MAO-A enzyme inhibition (substrate: Kynuramine); set-up: species or system BTI-TN-5B1-4; details: bti-tn-5b1-4; Not Active = under 50% inhibition at 10 µM
T2 sequence (P21397 whole entry): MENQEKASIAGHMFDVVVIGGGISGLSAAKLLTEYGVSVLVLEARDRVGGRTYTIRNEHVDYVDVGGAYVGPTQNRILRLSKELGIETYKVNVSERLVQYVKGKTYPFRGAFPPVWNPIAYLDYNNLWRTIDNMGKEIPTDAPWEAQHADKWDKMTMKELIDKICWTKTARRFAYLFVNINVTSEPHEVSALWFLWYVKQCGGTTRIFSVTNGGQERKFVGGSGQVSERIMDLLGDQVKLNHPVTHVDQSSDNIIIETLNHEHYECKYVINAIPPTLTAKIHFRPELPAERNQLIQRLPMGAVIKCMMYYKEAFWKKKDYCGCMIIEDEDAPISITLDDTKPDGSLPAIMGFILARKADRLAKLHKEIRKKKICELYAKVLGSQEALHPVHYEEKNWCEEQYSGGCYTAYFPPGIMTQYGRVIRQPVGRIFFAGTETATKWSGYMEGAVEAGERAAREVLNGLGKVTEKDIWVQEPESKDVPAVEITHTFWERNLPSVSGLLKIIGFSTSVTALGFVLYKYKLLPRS

Neutrophil elastase = target: T3, Neutrophil elastase (Homo sapiens, UniProt P08246); assay type: tissue-based;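 further: inhibition of neutrophil elastase enzyme activity, measured with a p-nitroanilide-linked peptide substrate; in other assays of this panel Not Active means under 50% inhibition at 10 µM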
T3 sequence (P08246 whole entry): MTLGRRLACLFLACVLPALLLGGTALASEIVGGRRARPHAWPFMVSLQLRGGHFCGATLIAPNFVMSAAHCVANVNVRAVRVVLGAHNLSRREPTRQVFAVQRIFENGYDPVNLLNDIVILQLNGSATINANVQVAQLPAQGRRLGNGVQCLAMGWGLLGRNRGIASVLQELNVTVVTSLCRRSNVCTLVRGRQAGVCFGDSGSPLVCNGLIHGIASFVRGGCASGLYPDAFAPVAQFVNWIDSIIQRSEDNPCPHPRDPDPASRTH

[3] = target: T4, Muscarinic acetylcholine receptor M4 (Homo sapiens, UniProt P08173); assay type: cell membranes, CHO-K1, Membrane; details: for Ki: read-out: Ki; on all read-outs here: in other assays of this panel Not Active means under 50% inhibition at 10 µM
T4 sequence (P08173 whole entry): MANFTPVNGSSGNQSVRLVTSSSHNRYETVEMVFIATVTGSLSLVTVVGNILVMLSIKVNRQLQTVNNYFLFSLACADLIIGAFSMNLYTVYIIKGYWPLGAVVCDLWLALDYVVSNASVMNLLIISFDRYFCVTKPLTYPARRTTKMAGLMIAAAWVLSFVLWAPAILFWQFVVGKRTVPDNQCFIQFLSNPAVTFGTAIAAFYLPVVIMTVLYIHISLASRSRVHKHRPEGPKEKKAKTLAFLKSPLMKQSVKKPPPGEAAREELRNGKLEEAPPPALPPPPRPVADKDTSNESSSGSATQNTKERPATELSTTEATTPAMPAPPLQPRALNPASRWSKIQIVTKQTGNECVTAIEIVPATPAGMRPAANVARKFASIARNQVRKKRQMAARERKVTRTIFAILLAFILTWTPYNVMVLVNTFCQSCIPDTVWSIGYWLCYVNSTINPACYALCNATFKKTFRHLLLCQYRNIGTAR

Acetylcholinesterase, sequence (P22303 whole entry): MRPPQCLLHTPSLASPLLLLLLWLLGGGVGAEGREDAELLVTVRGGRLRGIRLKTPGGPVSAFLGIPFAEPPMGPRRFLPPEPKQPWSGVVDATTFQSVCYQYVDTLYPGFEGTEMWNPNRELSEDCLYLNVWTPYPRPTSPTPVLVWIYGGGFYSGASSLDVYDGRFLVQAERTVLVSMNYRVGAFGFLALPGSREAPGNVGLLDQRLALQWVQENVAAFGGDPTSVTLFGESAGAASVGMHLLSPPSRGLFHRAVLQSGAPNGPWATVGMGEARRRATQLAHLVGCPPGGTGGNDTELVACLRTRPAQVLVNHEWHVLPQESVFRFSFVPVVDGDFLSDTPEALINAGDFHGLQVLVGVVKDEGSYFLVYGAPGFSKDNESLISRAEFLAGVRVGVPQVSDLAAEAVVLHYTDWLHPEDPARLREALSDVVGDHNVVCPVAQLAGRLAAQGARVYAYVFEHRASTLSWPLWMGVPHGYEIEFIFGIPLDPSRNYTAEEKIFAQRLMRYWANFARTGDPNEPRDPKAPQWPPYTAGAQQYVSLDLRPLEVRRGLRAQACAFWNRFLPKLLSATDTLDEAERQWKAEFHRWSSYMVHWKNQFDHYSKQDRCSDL

N[C@@H](Cc1ccc(N(CCCl)CCCl)cc1)C(=O)O
Not Active: IC50 (Acetylcholinesterase; hek293) | IC50 [1] | Ki [1] | IC50 (Substance-K receptor; cho) | IC50 [2] | IC50 (Neutrophil elastase) | IC50 ([3]; cho-k1)

CC(C)N1CCN(c2ccc(OCC3COC(Cn4cncn4)(c4ccc(Cl)cc4Cl)O3)cc2)CC1 (centres undefined) [TERCONAZOLE]
1910 nM: Ki [3]
Not Active: IC50 [1] | Ki [1] | IC50 (Substance-K receptor; cho) | IC50 [2] | IC50 (Neutrophil elastase)
21.6 µM: IC50 (Acetylcholinesterase; read-out: IC50)
13.7 µM: IC50 ([3]; read-out: IC50)

Cc1nc2n(c(=O)c1CCN1CCC(c3noc4cc(F)ccc34)CC1)CCCC2 [RISPERIDONE]
Not Active: IC50 (Acetylcholinesterase; hek293) | IC50 (Substance-K receptor; cho) | IC50 [2] | IC50 (Neutrophil elastase) | IC50 ([3]; cho-k1)

N[C@@H]1[C@H]2CN(c3nc4c(cc3F)c(=O)c(C(=O)O)cn4-c3ccc(F)cc3F)C[C@@H]12 [TROVAFLOXACIN]
Not Active: IC50 (Acetylcholinesterase; hek293) | IC50 [1] | Ki [1] | IC50 (Substance-K receptor; cho) | IC50 [2] | IC50 (Neutrophil elastase) | IC50 ([3]; cho-k1)

O=c1ncn2nc(Sc3ccc(F)cc3F)ccc2c1-c1c(Cl)cccc1Cl [NEFLAMAPIMOD]
Not Active: IC50 (Acetylcholinesterase; hek293) | IC50 [1] | Ki [1] | IC50 (Substance-K receptor; cho) | IC50 [2] | IC50 (Neutrophil elastase) | IC50 ([3]; cho-k1)

CCCCc1oc2ccccc2c1C(=O)c1cc(I)c(OCCN(CC)CC)c(I)c1 [AMIODARONE]
3.63 µM: IC50 ([3]; read-out: IC50)
506 nM: Ki [3]
19.3 µM: IC50 (Substance-K receptor; read-out: IC50)
Not Active: IC50 (Acetylcholinesterase; hek293) | IC50 [2] | IC50 (Neutrophil elastase)
6.44 µM: Ki (Substance-K receptor)

CC[C@]1(O)C[C@H]2CN(CCc3c([nH]c4ccccc34)[C@@](C(=O)OC)(c3cc4c(cc3OC)N(C=O)[C@H]3[C@@](O)(C(=O)OC)[C@H](OC(C)=O)[C@]5(CC)C=CCN6CC[C@]43[C@@H]65)C2)C1 [VINCRISTINE]
Not Active: IC50 (Acetylcholinesterase; hek293) | IC50 [1] | Ki [1] | IC50 (Substance-K receptor; cho) | IC50 [2] | IC50 (Neutrophil elastase) | IC50 ([3]; cho-k1)

CO[C@H]1/C=C/O[C@@]2(C)Oc3c(C)c(O)c4c(O)c(c(/C=N/N5CCN(C)CC5)c(O)c4c3C2=O)NC(=O)/C(C)=C\C=C\[C@H](C)[C@H](O)[C@@H](C)[C@@H](O)[C@@H](C)[C@H](OC(C)=O)[C@@H]1C [RIFAMPIN]
Not Active: IC50 (Acetylcholinesterase; hek293) | IC50 [1] | Ki [1] | IC50 (Substance-K receptor; cho) | IC50 [2] | IC50 (Neutrophil elastase) | IC50 ([3]; cho-k1)

Cc1noc(NS(=O)(=O)c2ccc(N)cc2)c1C [SULFISOXAZOLE]
Not Active: IC50 (Acetylcholinesterase; hek293) | IC50 [1] | Ki [1] | IC50 (Substance-K receptor; cho) | IC50 [2] | IC50 (Neutrophil elastase) | IC50 ([3]; cho-k1)

NS(=O)(=O)c1cc2c(cc1Cl)NC(C(Cl)Cl)NS2(=O)=O (centres undefined) [TRICHLORMETHIAZIDE]
Not Active: IC50 (Acetylcholinesterase; hek293) | IC50 [1] | Ki [1] | IC50 (Substance-K receptor; cho) | IC50 [2] | IC50 (Neutrophil elastase) | IC50 ([3]; cho-k1)

COc1nc(C)nc(Cl)c1NC1=NCCN1 [MOXONIDINE]
Not Active: IC50 (Acetylcholinesterase; hek293) | IC50 [1] | Ki [1] | IC50 (Substance-K receptor; cho) | IC50 [2] | IC50 (Neutrophil elastase) | IC50 ([3]; cho-k1)

Nc1nc2ccc(OC(F)(F)F)cc2s1 [RILUZOLE]
Not Active: IC50 (Acetylcholinesterase; hek293) | IC50 [1] | Ki [1] | IC50 (Substance-K receptor; cho) | IC50 [2] | IC50 (Neutrophil elastase) | IC50 ([3]; cho-k1)

N[C@@H](Cc1cc(I)c(Oc2ccc(O)c(I)c2)c(I)c1)C(=O)O [LIOTHYRONINE]
Not Active: IC50 (Acetylcholinesterase; hek293) | IC50 (Substance-K receptor; cho) | IC50 [2] | IC50 (Neutrophil elastase) | IC50 ([3]; cho-k1)

C[C@@H]1CN(c2c(F)c(N)c3c(=O)c(C(=O)O)cn(C4CC4)c3c2F)C[C@H](C)N1 [SPARFLOXACIN]
Not Active: IC50 (Acetylcholinesterase; hek293) | IC50 [1] | Ki [1] | IC50 (Substance-K receptor; cho) | IC50 [2] | IC50 (Neutrophil elastase) | IC50 ([3]; cho-k1)

CC1(C)O[C@@H]2C[C@H]3[C@@H]4CCC5=CC(=O)C=C[C@]5(C)[C@@]4(F)[C@@H](O)C[C@]3(C)[C@]2(C(=O)CO)O1 [TRIAMCINOLONE ACETONIDE]
Not Active: IC50 (Acetylcholinesterase; hek293) | IC50 [1] | Ki [1] | IC50 (Substance-K receptor; cho) | IC50 [2] | IC50 (Neutrophil elastase) | IC50 ([3]; cho-k1)

CSc1ccc(/C=C2/C(C)=C(CC(=O)O)c3cc(F)ccc32)cc1 [SULINDAC SULFIDE]
Not Active: IC50 (Acetylcholinesterase; hek293) | IC50 [1] | Ki [1] | IC50 (Substance-K receptor; cho) | IC50 [2] | IC50 (Neutrophil elastase) | IC50 ([3]; cho-k1)

Nc1c2c(nc3ccccc13)CCCC2 [TACRINE]
Not Active: IC50 [1] | Ki [1] | IC50 (Substance-K receptor; cho) | IC50 [2] | IC50 (Neutrophil elastase) | IC50 ([3]; cho-k1)

CN1CCN(CCCN2c3ccccc3Sc3ccc(Cl)cc32)CC1 [PROCHLORPERAZINE]
Not Active: IC50 (Acetylcholinesterase; hek293) | IC50 (Substance-K receptor; cho) | IC50 [2] | IC50 (Neutrophil elastase)
190 nM: Ki [3]
1.36 µM: IC50 ([3]; read-out: IC50)

N[C@@H](Cc1ccc(O)c(O)c1)C(=O)O [LEVODOPA]
Not Active: IC50 (Acetylcholinesterase; hek293) | IC50 [1] | Ki [1] | IC50 (Substance-K receptor; cho) | IC50 [2] | IC50 (Neutrophil elastase) | IC50 ([3]; cho-k1)

O=NN(CCCl)C(=O)NC1CCCCC1 [LOMUSTINE]
Not Active: IC50 (Acetylcholinesterase; hek293) | IC50 [1] | Ki [1] | IC50 (Substance-K receptor; cho) | IC50 [2] | IC50 (Neutrophil elastase) | IC50 ([3]; cho-k1)

Cc1c(C)c2c(c(C)c1O)CCC(C)(COc1ccc(CC3SC(=O)NC3=O)cc1)O2 (centres undefined) [TROGLITAZONE]
Not Active: IC50 (Acetylcholinesterase; hek293) | IC50 [1] | Ki [1] | IC50 (Substance-K receptor; cho) | IC50 [2] | IC50 (Neutrophil elastase) | IC50 ([3]; cho-k1)

CCOC(=O)N1CCC(=C2c3ccc(Cl)cc3CCc3cccnc32)CC1 [LORATADINE]
Not Active: IC50 (Acetylcholinesterase; hek293) | IC50 [1] | Ki [1] | IC50 (Substance-K receptor; cho) | IC50 [2] | IC50 (Neutrophil elastase) | IC50 ([3]; cho-k1)

Cc1cccc(N(C)C(=S)Oc2ccc3ccccc3c2)c1 [TOLNAFTATE]
Not Active: IC50 (Acetylcholinesterase; hek293) | IC50 [1] | Ki [1] | IC50 (Substance-K receptor; cho) | IC50 [2] | IC50 (Neutrophil elastase) | IC50 ([3]; cho-k1)

NC[C@H]1CC[C@H](C(=O)O)CC1 [TRANEXAMIC ACID]
Not Active: IC50 (Acetylcholinesterase; hek293) | IC50 [1] | Ki [1] | IC50 (Substance-K receptor; cho) | IC50 [2] | IC50 (Neutrophil elastase) | IC50 ([3]; cho-k1)

CC[C@@H](CO)NC(=O)[C@@H]1C=C2c3cccc4[nH]cc(c34)C[C@H]2N(C)C1 [METHYLERGONOVINE]
Not Active: IC50 (Acetylcholinesterase; hek293) | IC50 [1] | Ki [1] | IC50 (Substance-K receptor; cho) | IC50 [2] | IC50 (Neutrophil elastase) | IC50 ([3]; cho-k1)

c1ccc([C@H]2CN3CCSC3=N2)cc1 [LEVAMISOLE]
Not Active: IC50 (Acetylcholinesterase; hek293) | IC50 [1] | Ki [1] | IC50 (Substance-K receptor; cho) | IC50 [2] | IC50 (Neutrophil elastase) | IC50 ([3]; cho-k1)

CC/C(=C(\c1ccccc1)c1ccc(OCCN(C)C)cc1)c1ccccc1 [TAMOXIFEN]
4.82 µM: IC50 ([3]; read-out: IC50)
672 nM: Ki [3]
3.67 µM: IC50 (Substance-K receptor; read-out: IC50)
1.22 µM: Ki (Substance-K receptor)
Not Active: IC50 (Acetylcholinesterase; hek293) | IC50 [2] | IC50 (Neutrophil elastase)
